Assay results reported in a melting point compilation (Tetko et al.; mined from patent text by program, amines drawn as free bases though some values may be those of a salt).

melting point [°C]	Structure (SMILES)
156 to 158	COc1ccc2c(c1)CCC(=O)N(C(C)=O)CCCC2=O
89 to 91	OCCNC(=S)NC1CCc2ccccc2C1 (configuration not stated)
144 to 145	CC(=O)CC(=O)Nc1ccc(C(F)(F)F)cc1
249 to 250	COc1ccc(C(=O)NCc2ccc(CNC(=O)c3ccc(OC)cc3)cc2)cc1
54 to 55	O=[N+]([O-])c1cc(OCc2ccccc2)cc(C2CO2)c1 (configuration not stated)
165 to 166	O=C1CCC(c2ccc(O)cc2)CC1
57	CC(Cc1ccc(C(=O)C(C)(C)O)cc1)C(=O)O (configuration not stated)
152 to 153	NC(=O)c1ccc(CCBr)cc1
270 to 272	O=c1[nH]c(CCl)nc2cc3c(cc12)CCC3
155 to 156	CN(Cc1ccco1)c1nccc(Oc2ccc(NC(=O)c3cc(F)cc(N4CCCCC4)c3)c3ccccc23)n1
209 to 212	Cc1ccc(Sc2ccc3c(c2)CC[C@H]2NC(=O)CC[C@]32C)cc1
223	Cc1c(C(=O)Nc2ccc(N3CCC(N4CCOCC4)CC3)c(C#N)c2)cnn1-c1ccccc1
183 to 185	NC(=O)N1c2ccccc2C=C(Cl)c2ccccc21
136	CCCS(=O)(=O)c1ccc2c(c1)C1(O)C(C2)SC(=NCC)N1CC (configuration not stated)
208 to 209	O=C1NC(=O)c2c1c(-c1ccccc1Cl)cc1c2ccn1CCN1CCCC1
38	CSC(=S)c1cccc([N+](=O)[O-])c1
134 to 135	CCOC(=O)NNC=Nc1nc(-c2ccc3c(c2)CCCC3)cs1
112 to 114	Cc1cccc(OCCCN2CCC(C(O)(c3ccc(F)cc3)c3ccc(F)cc3)CC2)c1
180 to 183	CC(C)c1cccc(C(C)C)c1NC(=O)Nc1nc(-c2ccccc2)ns1
146 to 149	CCCNC(=S)Nc1ccnc(CCCCCN2C(=O)c3ccccc3C2=O)n1
158 to 159	CC(=O)OC1OCC[C@@H]1NC(=O)[C@H](CC(C)C)NC(=O)OCc1ccccc1 (some centres not stated)
105	O=C(NCc1cccs1)C1CCCCC1
127 to 128	Cc1nc(N2CCN(CCCc3ccccc3)C2=O)sc1C(=O)NCc1cccnc1
250	CCCC1=C(C#N)C(c2cccc(C)c2[N+](=O)[O-])c2c[nH]nc2N1 (configuration not stated)

melting point [°C]	Structure (SMILES)
235 to 237	CCC(=NNc1ccc(C2=NNC(=O)CC2)cc1)c1ccncc1
231 to 232	CCOc1ccc(-c2csc(-c3cccc(C(=O)O)c3)n2)cc1
64 to 67	CC[C@H](C)[C@H](N)C(=O)NC(C)COc1ccc(C#N)cc1 (some centres not stated)
153 to 154	OCCCc1ccc(Nc2ncc(-c3ccccc3)s2)nc1
98 to 102	CN(O)C(=O)NC1CCCc2sccc21 (configuration not stated)
224 to 226	CC(=O)c1c(C)c2cnc(Nc3ccc(N4CCOCC4)nc3)nc2n(C2CCCC2)c1=O
112	CC(NS(=O)(=O)c1cc(C(=O)Cl)ccc1Cl)c1ccccc1 (configuration not stated)
213 to 214	N#CN=C(Nc1cncc(N)c1)NC1(c2ccccc2)CCC1
173 to 175	Cc1cccc(-c2nc3cccnn3c2-c2ccnc(N(C(=O)C3CC3)C(=O)C3CC3)c2)c1
126 to 127	CCOc1cc(Cn2cc(CCC(=O)O)c(-c3ccccc3)c2)cc(OCc2nc(-c3ccccc3)oc2C)c1
85 to 88	BrCc1ccccc1-c1ccccc1CBr
125 to 126	COC(=O)c1sc(S(C)(=O)=O)cc1OCc1ccccc1
166	Nc1cccc(-c2cc3ccccc3[nH]2)c1
176 to 178	NCCC(O)(c1ccc(-c2ccccc2)cc1)c1ccc(-c2ccccc2)cc1
90	NC(=O)c1nccn1C1Cc2c(Cl)cccc2C1=O (configuration not stated)
140 to 145	CC(C)(C)c1ccccc1N1CCN(C(=O)c2ccccn2)CC1
203	O=C(NCc1ccccc1)c1ccc(C=CC(=O)N2CCc3c([nH]c4ccccc34)C2c2ccc3c(c2)OCO3)cc1 (configuration not stated)
123 to 124	CCCCOc1c(CNC(=O)OC(C)(C)C)n(CC(C)C)c(=O)c2ccc(-c3ccccn3)cc12
236 to 238	COc1cc(C(=O)NS(=O)(=O)c2ccccc2C)ccc1Cc1c(Cl)n(C)c2cc(Cl)c(CCNC(=O)N(C)C)cc12
88 to 91	Nc1cccc2c1CC(O)CC2 (configuration not stated)
85 to 87	OC(CCN1CCN(c2ccccc2)CC1)c1ccccc1 (configuration not stated)
109	Cc1ccc(N2C(=O)c3ccccc3C2=O)c(Cl)c1Cl
102 to 104	CC(COc1ccc(O)c(C(N)=O)c1)NCc1ccccc1 (configuration not stated)

The remaining lines, values behind:

Structure (SMILES)	melting point [°C]
NC(=NO)c1nn([C@@H]2O[C@H](CO)[C@@H](O)[C@H]2O)c2ncnc(N)c12	242 to 244
Cc1ccc(-c2ccc3c(=O)ccoc3c2)cc1	159 to 160
Cc1cc(Oc2c(Cl)cc(C(F)(F)F)cc2Cl)nn1C(=O)NC(C)C	103 to 105
Oc1cccc(-c2ccc3c(-c4cccnc4)coc3c2)c1	205 to 207
CCCCCCCCCCCCc1nnn(C(CCCCCCCCCCCC)C(=O)O)n1 (configuration not stated)	57 to 59
CCOC(=O)CSCc1cccc(-c2c(CC(=O)Nc3ccc(F)cc3C(F)(F)F)c(=O)oc3cc(Cl)c(C)cc23)c1	106 to 108
CS(=O)(=O)c1ccc(-c2nc(C(F)(F)F)nc(N=[N+]=[N-])c2-c2ccccc2)cc1	172 to 175
Cc1nc2ccnn2c(Cl)c1CCCl	87 to 88
CCOc1c(-c2ccc3cc(NS(C)(=O)=O)ccc3c2)cc(-n2ccc(=O)[nH]c2=O)cc1C(C)(C)C	196 to 202
Sc1nc2ncccc2[nH]1	> 250
CN(C)CCc1ccc([N+](=O)[O-])c2[nH]ncc12	145 to 146
O=C(O)CCCc1cc2nc(Cl)ccc2n1S(=O)(=O)c1ccc(OC(F)(F)F)cc1	168
Cc1c(C(=O)N[C@@H](Cc2ccc(OCc3ccsc3)cc2)C(=O)O)oc2cc(-c3ccc(Cl)cc3)ccc12	111 to 113
CC(=O)N1CC(CCN2CC=C(c3ccccc3)CC2)c2cc3c(cc21)OCO3 (configuration not stated)	90 to 91
COCCc1nc2c(N)nc3cc(Br)cnc3c2n1CC(C)(C)O	210 to 211
CC(C)S(=O)(=O)c1cc(C#N)c(N)c(OCCCS(C)(=O)=O)c1	142 to 143
Cn1c(C(F)(F)F)cc(=O)n(-c2cc(OCCOCCCl)c(Cl)cc2F)c1=O	191 to 193
COC(=O)c1nsc(S)n1	126 to 127
Cc1noc(-c2ccc(I)cc2)n1	136 to 137
CC1COCc2nc3c(N)nc4ccc(OCCN5CCOCC5)cc4c3n21 (configuration not stated)	186 to 188
COC(=O)Nc1nccc(Oc2ccc3c(C(=O)Nc4ccc(CN5CCN(C)CC5)c(C(F)(F)F)c4)csc3c2)n1	205 to 206
O=C1OCCC12Sc1ccc(Cl)cc1C2=O (configuration not stated)	143 to 144
CC(C)n1nc(-c2sc(C(=O)NCc3ccncc3)nc2-c2ccc(F)cc2)ccc1=O	155 to 157
CC(=O)Oc1cn(C(C)=O)c2ccc(F)c(Cl)c12	168 to 169
CCCCCCCCc1ccc(CCC(NC(C)=O)(C(O)OC(C)=O)C(O)OC(C)=O)cc1 (configuration not stated)	105 to 107
O=[N+]([O-])c1cccc(-c2cc3c(Cl)ncnc3o2)c1	196 to 205
CCCc1c(OCc2cc(Br)cn3c(=O)c(CCC(=O)O)cnc23)ccc(C(C)=O)c1O	239 to 242
COC(=O)c1ccc(OCC(=O)NN=C2C(=O)Nc3ccc(I)cc32)cc1	288

Structure (SMILES)	melting point [°C]
O=[N+]([O-])c1ccc(SSc2nc3ccccc3s2)c(C(Cl)(Cl)Cl)c1	97
O=[N+]([O-])c1ccc2c(c1)OC(CC(F)(F)F)(C(F)(F)F)O2 (configuration not stated)	87 to 88
CCCCCCCCCCCC12OC(C)CN1CC(C)O2 (configuration not stated)	> 130
Cc1cc(F)c(-n2cnc3ccccc3c2=O)cc1SCC(F)(F)F	145 to 147
CC(C)(S)C(N)P(C)(=O)O (configuration not stated)	221
Cn1c(=O)c2c(Cl)nccc2n(C)c1=O	220
O=S(CBr)c1ccc2c(c1)OCO2 (configuration not stated)	88 to 89
C[Si](C)(C)ON1C(=O)CCC1=O	55 to 57
CC(C)(C#N)c1cc(C(Cl)c2cncnc2)cc(C(C)(C)C#N)c1 (configuration not stated)	118 to 121
CCOC(=O)C(CSC12CC3CC(CC(C3)C1)C2)NC(C)C(=O)O (configuration not stated)	68 to 72
Cc1cc(-c2cn(-c3cccc(OCCn4ccnc4)c3)c3ncnc(N)c23)ccc1OCc1ccccc1	158 to 160
O=S(=O)(NCc1ccc(O)cc1)c1ccc(Cl)cc1	187 to 189
CCc1cc2c(Cl)ccc(-n3c(=O)cc(C(F)(F)F)n(C)c3=O)c2o1	159 to 160
CC12CCC(O)CC1CCC1C2CCC2(C)C(C(=O)CSc3ccncc3)CCC12 (configuration not stated)	154 to 156
CC(C)(C)OC(=O)N[C@@H]1C(=O)N(O)C1(C)C	148 to 149
CCCCCCCCOC(=O)CCP(=O)(CCC(N)=O)Cc1cc(C(C)(C)C)c(O)c(C(C)(C)C)c1 (configuration not stated)	154 to 157
CN1C(=O)C(N)=C(C(N)=S)C1=O	282
CCOCc1cc(CCCOc2c(C)cc(-c3noc(C(F)(F)F)n3)cc2C)on1	24 to 25
COCCc1nc2c(N)nc3cc(-c4cccc(CO)c4)ccc3c2n1CC(C)(C)O	212 to 213
CCCCCCCCCC(CC)C(=O)Nc1cc(C(=O)O)ccc1C (racemic)	217 to 220
O=C(Cc1ccc(Cl)c(Cl)c1)N1CCCC2CCCC(N3CCCC3)C21 (configuration not stated)	82 to 84
COC1(OC)C2(Cl)C(Cl)=C(Cl)C1(Cl)C(O)C2O (configuration not stated)	160 to 162
c1ccc(Nc2nc3ccccc3n3cc(-c4ccccc4)cc23)cc1	172
C=CCc1cc(COC(=O)C(C)(C)C)ccc1C#CC1(O)CN2CCC1CC2 (configuration not stated)	73
Cc1ccc(-c2cnn(-c3ccc(C)cc3)n2)cc1	98 to 99
NNC(=O)C(CC1CC2CCN1CC2)(c1ccccc1)c1ccccc1 (configuration not stated)	158 to 160
N#Cc1cc(S(=O)(=O)c2ccc(Cl)cc2)[nH]c1-c1ccc(Cl)cc1	159 to 160
